# Experimental data: patent publication US8168178B2, “Methods and compositions for regulating lymphocyte activity” (Curis, Inc., priority 1999, dated 2012)
# What was measured:
# [1] = tested on: thymocytes in wild-type FTOC; assay: Fetal thymic organ culture (FTOC) of wild-type thymus, flow cytometry of thymocyte subsets; format: cell-based, mouse
# Description: Utilizing a fetal thymic organ culture (FTOC), the effects of Shh on T-cell maturation was determined. Briefly, immature thymocytes (CD4^−/CD8^− [DN]) were isolated from E14 thymus. The cells were culture for about 7 days, and the level of mature thymocytes, e.g., CD4^+/CD8^+ [DP], was assessed. In certain cultures, octyl-modified Shh was added to the culture; in other cultures, the anti-hedgehog 5E1 antibody was added.
# We have previously shown that treatment of wild-type FTOC with between 0.3 and 1 μg/ml recombinant Shh arrested thymocyte development at the DN stage (Outram et al., Immunity 13: 187, 2000). This arrest was not due to nonspecific toxicity of the recombinant Shh, but was a genuine biological effect, as it could be neutralized by addition of anti-Hh mAb. […] Therefore, we decided to determine whether treatment of FTOC with lower concentrations of Shh could promote thymocyte development. We treated wild-type FTOC for 5 days with 0.0005 μg/ml Shh or 0.5 μg/ml Shh. In a typical experiment, treatment with 0.5 μg/ml Shh arrested thymocyte development at the DN stage, and <1% of thymocytes were DP compared with 7.6% in the control cultures, whereas treatment with 0.0005 μg/ml Shh promoted thymocyte development, and 15.2% of cells were DP (FIG. 12A). […] Treatment with 0.5 μg/ml inhibited both the production of DP cells and the overall cell recovery, and this inhibition was neutralized by addition of anti-Hh mAb, confirming that the arrest in thymocyte development was not the result of non-specific toxicity of the reagent (FIG. 12B). Thus, in wild-type FTOC, treatment with different concentrations of recombinant Shh can produce distinct outcomes at the transition from DN to DP cells; high-dose Shh treatment arrests thymocyte development, but treatment with a 1000-fold lower dose promotes the production of DP cells (FIG. 12, A-C).
# (§1) Thymocyte suspensions were prepared by crushing thymi between two pieces of ground glass. Cells were stained using combinations of the following directly conjugated antibodies obtained from BD Pharmingen: anti-CD44FITC, anti-CD44Cychrome, anti-CD25 PE, anti-CD25 FITC, anti-CD4FITC, anti-CD8 Cychrome, anti-CD4PE, anti-CD4Cychrome, anti-CD8FITC, anti-CD45.1PE, anti-CD45.2FITC, anti-CD3PE and anti-TCR-βPE. Cell suspensions were stained with the antibodies for 30 minutes on ice in 50 μl of Dulbeccos modified medium (Life Technologies), supplemented with 5% FCS and 0.1% sodium azide. Cells were washed in this medium between incubations and prior to analysis on the FACScan (Becton Dickinson). Events were collected in list mode using CellQuest software and data analysed using CellQuest Pro software. Live cells were gated according to their FSC and SSC profiles. Data are representative of at least three experiments.
# (§2) Fetal thymi were dissected from E14.5 Shh +/+, +/− and −/− mice and cultured on 8 μm pore size Millipore filters (Millipore) in AIM-V serum free medium (Life Technologies). Thymi were cultured at 37° C. and 5% CO2 for 3 or 6 days or cultured in the presence of 0.5 μg/ml or 0.0005 μg/ml modified human Shh (Curis) for 7 days.
# [2] = tested on: thymocytes in Shh−/− FTOC; assay: FTOC of E14.5 Shh−/− thymus explants treated with recombinant Shh; format: cell-based, mouse
# Description: As thymocyte cellularity and differentiation were reduced in Shh−/− thymi, we examined if we could promote thymocyte development in Shh−/− thymus explants by treatment with recombinant Shh. We have previously shown that treatment of wildtype FTOC with between 0.3 to 1 μg/ml recombinant Shh arrested thymocyte development at the DN stage (Outram et al., 2000). […] We treated Shh−/− thymus explants for 7 days with 0.5 or 0.0005 μg/ml recombinant Shh. Treatment with 0.5 μg/ml Shh inhibited differentiation from DN to DP cells. In a typical experiment, 5.2% of thymocytes were DP in the treated cultures compared with 36.6% in control cultures (FIG. 12, D and E). Thus, Shh−/− thymocytes were able to respond to a Shh signal in the same way as wildtype thymocytes, despite the fact that they had not been exposed to Shh in vivo. Although this high dose of Shh arrested thymocyte differentiation, some activation of the Hh signalling pathway is clearly necessary for normal thymocyte differentiation. We therefore treated Shh−/− explants with a 1000-fold lower dose of recombinant Shh (0.0005 μg/ml). Treatment of Shh−/− thymus explants with low-dose Shh promoted differentiation to DP cell: After 7 days in culture Shh−/− thymus explants treated with 0.0005 μg/ml Shh contained more DP thymocytes than untreated Shh−/− thymus explants −41.6% DP thymocytes and 32.7% DN thymocytes in treated Shh−/− thymus explants, compared with 36.6% DP cells and 43.1% DN cells in untreated control Shh−/− thymus cultures (FIG. 9b).
# We repeated these experiments by treating individual Shh−/− thymus lobes with recombinant Shh and comparing them to untreated cultures of the other lobe from the same embryo (summarized in FIG. 12F, cell production in each culture condition compared with that in the control lobe are shown on a log scale).
# as §1, §2
# [3] = tested on: thymocytes in wild-type FTOC; details: cited from earlier work
substance,measurement,setting,value
"Shh: hydrophobically modified human Shh signalling protein, N-octyl-malemide coupled to amino-terminal cysteine of bacterially derived N-shh (Curis)",percentage of cells with markers indicative of immature thymocytes,"[1]; E14 thymus, about 7 days culture, high dose of Shh 0.5 μg/ml",increase
same,Shh concentration at which Hedgehog functions as an immunosuppressant,"[1]; FTOC, FIG. 12B",more than 0.1 μg/ml
same,promotion of thymocyte development,"[1]; wild-type FTOC, 0.00005 μg/ml",lost
same,cells that were DP,"[1]; wild-type FTOC, 5 days, 0.0005 μg/ml Shh, control cultures 7.6%",15.2%
same,thymocytes that were DP,"[1]; wild-type FTOC, 5 days, 0.5 μg/ml Shh, control cultures 7.6%",< 1%
same,DN thymocytes,"[2]; Shh−/− explants, 7 days, 0.0005 μg/ml Shh, untreated 43.1%",32.7%
same,thymocytes that were DP,"[2]; Shh−/− explants, 7 days, 0.5 μg/ml Shh, control cultures 36.6%",5.2%
same,production of DP cells,"[2]; Shh−/− explants, low dose treatment (0.0005 μg/ml), overall",more than doubled
same,cell number compared to control,"[2]; Shh−/− explants, low-dose Shh (0.0005 μg/ml)",increased
same,differentiation from DN to DP cells,"[2]; Shh−/− thymus explants, 0.5 μg/ml Shh",inhibited
same,overall cell production and differentiation to DP cell,"[2]; individual Shh−/− thymus lobes, high dose Shh",inhibited
same,"thymocyte development at the DN3 stage, after TCRβ chain gene rearrangement",[3]; in vitro treatment of FTOC (Outram et al. 2000),arrested
same,thymocyte development at the DN stage,"[3]; wild-type FTOC, between 0.3 and 1 μg/ml recombinant Shh (Outram et al. 2000)",arrested
